# Data: ChEMBL document CHEMBL2007661, “Compounds: GSK PKIS; Assays: UNC Frye lab” (2012)
# “And” between values parts separate entries of the source, which are not always exact repeats. Identical values can stand only once.
# What was measured:
# [1] = molecular target: T1, Serine/threonine-protein kinase TBK1 (Homo sapiens) (UniProt Q9UHD2); details: at 1 µM
# T1 sequence (whole entry): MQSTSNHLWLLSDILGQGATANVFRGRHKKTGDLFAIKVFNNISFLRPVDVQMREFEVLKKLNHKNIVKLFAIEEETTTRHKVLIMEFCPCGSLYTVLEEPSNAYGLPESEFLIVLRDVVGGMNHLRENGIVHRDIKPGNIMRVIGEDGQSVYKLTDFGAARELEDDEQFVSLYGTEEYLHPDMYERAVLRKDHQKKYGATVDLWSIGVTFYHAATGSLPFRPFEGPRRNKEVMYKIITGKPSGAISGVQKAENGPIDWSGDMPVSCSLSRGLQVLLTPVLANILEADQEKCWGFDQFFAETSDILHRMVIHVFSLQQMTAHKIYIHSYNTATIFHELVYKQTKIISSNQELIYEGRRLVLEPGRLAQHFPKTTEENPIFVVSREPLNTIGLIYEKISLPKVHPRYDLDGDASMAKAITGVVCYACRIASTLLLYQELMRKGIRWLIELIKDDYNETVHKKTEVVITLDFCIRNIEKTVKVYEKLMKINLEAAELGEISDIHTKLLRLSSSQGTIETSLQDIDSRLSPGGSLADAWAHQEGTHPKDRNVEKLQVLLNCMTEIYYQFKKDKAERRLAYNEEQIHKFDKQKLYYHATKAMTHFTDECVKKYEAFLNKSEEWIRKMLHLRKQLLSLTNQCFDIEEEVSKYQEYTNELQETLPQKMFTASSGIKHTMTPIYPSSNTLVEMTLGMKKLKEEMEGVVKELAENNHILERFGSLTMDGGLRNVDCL
# [2] = molecular target: T2, Tyrosine-protein kinase Mer (Homo sapiens) (UniProt Q12866); details: at 10 µM
# T2 sequence (whole entry): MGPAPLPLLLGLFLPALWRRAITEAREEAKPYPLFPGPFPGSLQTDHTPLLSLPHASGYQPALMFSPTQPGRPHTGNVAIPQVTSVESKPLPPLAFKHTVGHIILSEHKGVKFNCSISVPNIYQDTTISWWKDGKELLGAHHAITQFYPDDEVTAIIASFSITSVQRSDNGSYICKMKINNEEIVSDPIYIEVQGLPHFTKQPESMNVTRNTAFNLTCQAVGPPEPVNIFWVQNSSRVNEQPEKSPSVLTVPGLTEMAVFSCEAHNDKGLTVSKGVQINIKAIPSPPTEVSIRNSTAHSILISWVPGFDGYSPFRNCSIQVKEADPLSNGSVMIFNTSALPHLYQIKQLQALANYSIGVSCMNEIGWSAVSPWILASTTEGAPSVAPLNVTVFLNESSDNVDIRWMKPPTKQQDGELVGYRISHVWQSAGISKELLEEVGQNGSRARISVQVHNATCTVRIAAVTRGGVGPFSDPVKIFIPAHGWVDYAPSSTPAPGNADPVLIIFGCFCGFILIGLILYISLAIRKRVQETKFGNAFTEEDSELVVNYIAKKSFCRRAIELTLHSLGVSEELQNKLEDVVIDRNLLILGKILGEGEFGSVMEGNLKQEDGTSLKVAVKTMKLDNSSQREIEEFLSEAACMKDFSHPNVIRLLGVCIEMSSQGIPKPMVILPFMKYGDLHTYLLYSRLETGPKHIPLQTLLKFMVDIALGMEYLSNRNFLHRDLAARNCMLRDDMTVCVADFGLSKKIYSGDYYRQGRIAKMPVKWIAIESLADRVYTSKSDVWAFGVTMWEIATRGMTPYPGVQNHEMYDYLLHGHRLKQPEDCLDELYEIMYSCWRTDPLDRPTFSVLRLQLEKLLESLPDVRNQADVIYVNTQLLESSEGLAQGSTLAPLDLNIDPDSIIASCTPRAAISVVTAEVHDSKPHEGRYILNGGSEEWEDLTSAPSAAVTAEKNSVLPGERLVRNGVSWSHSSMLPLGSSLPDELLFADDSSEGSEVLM
Compound,inhibition [1],inhibition [2] [%]
NC(=O)c1sc(-n2cnc3cc(C(F)(F)F)ccc32)cc1OCc1ccccc1Br,3% and 6%,6
Nc1ncnc2occ(-c3ccc(NC(=O)Nc4cc(C(F)(F)F)cc(C(F)(F)F)c4)cc3)c12,-3% and -6%,2
NS(=O)(=O)c1ccc(N/N=C2\C(=O)Nc3ccc4ncccc4c32)cc1,76% and 77%,-1
NS(=O)(=O)c1ccc(-c2ccc3c(NC(=O)C4CC4)n[nH]c3c2)cc1,-3% and 0%,11
CC1=C(C(=O)Nc2ccc3[nH]ncc3c2)C(c2ccc3ccccc3c2)CC(=O)N1 (stereo not drawn),-2% and -5%,47
Cn1cc(C=C2C(=O)Nc3cccnc32)c2ccccc21,17% and 18%,-6
CS(=O)(=O)CCNCc1ccoc1-c1ccc2ncnc(Nc3ccc(OCc4ccccc4)cc3)c2c1,5% and 2%,88
CCn1c(-c2nonc2N)nc2c(C#CC(C)(C)O)ncc(OCC3CCNCC3)c21,55% and 59%,3
NS(=O)(=O)c1ccc(N/N=C2\C(=O)Nc3ccc(Cl)cc32)cc1,5% and 4%,2
COc1ccc(COc2ccc(Cc3cnc(N)nc3N)cc2OC)cc1,-3% and -2%,5
NC(=O)c1ccc(Oc2nccc(-c3c(-c4ccc(F)cc4)ncn3C3CCNCC3)n2)cc1,5% and 4%,3
COc1cc2ncn(-c3cc(OCc4ccccc4S(C)(=O)=O)c(C#N)s3)c2cc1OC,103% and 101%,2
Fc1ccc(Nc2nccc(-c3c(-c4ccc(C(F)(F)F)cc4)nn4ncccc34)n2)cc1F,-5%,-5
Nc1nc(-c2ccc(F)cc2)c(-c2ccc3ncccc3n2)s1,4% and 1%,-2
CCn1c(-c2nonc2N)nc2ccccc21,-2% and -3%,59
COc1cc(N2CCN(C(C)C)CC2)ccc1Nc1nc(Nc2ccc(F)cc2C(=O)NC[C@@H](O)CO)c2cc[nH]c2n1,-1% and -3%,0
c1ccc(Oc2ccc(Nc3ncc(-c4ccccc4)o3)cc2)cc1,-5% and -4%,27
NCc1ccc(-c2nc(-c3ccc(Cl)c(O)c3)c(-c3ccncc3)[nH]2)cc1,14% and 16%,0
COc1cc2c(cc1Nc1nc(Nc3ccsc3C(N)=O)c3cc[nH]c3n1)N(C(=O)CN(C)C)CCC2,23% and 19%,67
Fc1ccc(-c2ncn(C3CCNCC3)c2-c2ccnc(Oc3ccc4c(c3)OCO4)n2)cc1,-3% and -5%,6

Compound,inhibition [1],inhibition [2] [%]
CCn1c(-c2nonc2N)nc2c(C#CC(C)(C)O)ncc(OC[C@@H]3CCCN3)c21,65% and 66%,-4
COc1cc2ncnc(Nc3ccc4c(cnn4Cc4ccccc4)c3)c2cc1OC,5% and 2%,5
Cc1cc(Cl)cc2c1NC(=O)C2=NNc1ccc(S(N)(=O)=O)cc1,29% and 26%,63
CCN1CCC(CC(=O)Nc2n[nH]c3nnc(-c4cccc(F)c4F)cc23)CC1,0%,9
Cc1ccc(O)cc1Nc1ccnc2cc(-c3ccccn3)ccc12,2% and 1%,-2
Cc1cccc(Nc2ncc(-c3ccccc3)o2)c1,1% and 4%,38
COc1cc(Nc2ncc(-c3ccccc3)o2)cc(OC)c1,0% and 3%,-9
CCC(=O)Nc1ccc(C)c(-c2ccc(C(=O)NCC3CC3)cc2)c1,1% and -2%,-1
CN1CCC(n2cnc(-c3ccc(F)cc3)c2-c2ccnc(N)n2)CC1,0% and 2%,-7
Fc1ccc(-c2ncn(CCCN3CCOCC3)c2-c2ccncc2)cc1,-1%,21
Nc1nccc(C#Cc2cncnc2Nc2ccc(OCc3cccc(F)c3)c(Cl)c2)n1,18% and 9%,13
Cc1ccc(C(=O)NC2CCCCC2)cc1-c1ccc(C(=O)NCC2CC2)cc1,-2% and -3%,-8
Cc1ccc(O)cc1Nc1ccnc2ccc(S(C)(=O)=O)cc12,1% and -2%,6
CN(c1ccc(NC(=O)Nc2c(Cl)cccc2Cl)cc1)c1ccnc(Nc2cccc(CS(C)(=O)=O)c2)n1,19% and 17%,-4
COc1ccc2cc(-c3c(-c4ccncc4)nc(-c4ccc([S+](C)[O-])cc4)n3C)ccc2c1 (stereo not drawn),-3% and 0%,77
Cc1ccc(-c2cc3c(NC(=O)C4CC4)ncnc3o2)cc1,-2% and -3%,3
c1ccc(Cc2nc3ccc(Nc4ncnc5ccccc45)cc3[nH]2)cc1,-5% and -7%,4
Cc1c2ccc(N(C)c3ccnc(Nc4cccc(S(N)(=O)=O)c4)n3)cc2nn1C,1% and 2%,-9
CC(=O)Nc1cccc(C#Cc2cncnc2Nc2ccc(OCc3cccc(F)c3)c(Cl)c2)n1,3% and 0%,1
CN(C)C(=O)O[C@@H]1CN[C@@H](C#Cc2cc3ncnc(Nc4ccc(OCc5cccc(F)c5)c(Cl)c4)c3s2)C1,12% and 7%,8

Compound,inhibition [1],inhibition [2] [%]
O=C(Nc1n[nH]c2cc(-c3ccc(F)cc3)ccc12)C1CC1,2% and 4%,86
CS(=O)(=O)CCN(CC#N)Cc1ccc(-c2ccc3ncnc(Nc4ccc(OCc5cccc(F)c5)c(Cl)c4)c3c2)o1,11% and 12%,66
c1cnn2ncc(-c3ccnc(Nc4ccc5c(c4)OCCO5)n3)c2c1,29% and 33%,-3
COc1ccc(-c2cc(-c3c[nH]nc3-c3ccccn3)ccn2)cc1,-4% and -2%,-5
O=C(Nc1n[nH]c2cc(-c3ccccc3)ccc12)C1CC1,2% and 0%,-4
[O-][S+]1CCN(Cc2ccc(-c3ccc4ncnc(Nc5ccc(OCc6cccc(F)c6)c(Cl)c5)c4c3)o2)CC1,7% and 0%,67
COc1ccc2cc(-c3c(-c4ccncc4)nc(-c4ccc([S+](C)[O-])cc4C)n3C)ccc2c1 (stereo not drawn),-2% and -3%,-5
COc1cc2ncn(-c3cc(OCc4ccccc4C(F)(F)F)c(C(C)=O)s3)c2cc1OC,-3% and -2%,-1
NS(=O)(=O)c1ccc(Nc2cc(-c3cccc(O)c3)n[nH]2)cc1,-4% and -2%,2
CN(C)CCNC(=O)Nc1ccc(N(C)c2ccnc(Nc3ccc(CS(C)(=O)=O)cc3)n2)cc1,-2% and -4%,1
Oc1cccc(-c2nc(-c3ccccc3)[nH]c2-c2ccncc2)c1,-1%,3
COc1ccc(-c2nn3ncccc3c2-c2ccnc(Nc3ccc4c(c3)OCCO4)n2)cc1,1% and 0%,0
COc1ccc(-c2oc3ncnc(N)c3c2-c2ccc(NC(=O)Nc3cc(C(F)(F)F)ccc3F)cc2)cc1,-3% and -1%,-2
Fc1ccc(-c2ncn(C3CCNCC3)c2-c2ccnc(Oc3ccccc3)n2)cc1,0% and 3%,31
CS(=O)(=O)Nc1ccc(N/C=C2\C(=O)Nc3ccccc32)cc1,29% and 20%,2
CCn1c(-c2nonc2N)nc2cncc(C(=O)N3CC[C@H](N)C3)c21,32% and 36%,6
COc1ccc(Nc2ncc(-c3ccccc3)o2)cc1OC,8% and 20%,0
Cc1nnc(-c2cccc(-c3ccc(C(=O)NCC4CC4)cc3)c2)o1,-1% and -2%,-4
CN(C)CCCn1c(-c2nonc2N)nc2cnccc21,1% and 0%,23
